Source: patent US10344025B2, “GLS1 inhibitors for treating disease” (Board of Regents, The University of Texas System, priority 2014, dated 2019)

Assays:
A549 cells = test: Proliferation Assay (A549 viability, Cell Titer Fluor, 72 hours); type: cell-based; conditions: Homo sapiens, A549, 72 h
Outline: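 A549 cells seeded at 1000 cells/well, rested 24 h, then exposed to compound in 0.5% DMSO for 72 h at 37 °C. Viability read by Cell Titer Fluor fluorescence; IC50 from four-parameter logistic fit.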

[1] = molecular target: purified recombinant human GAC (GLS1) (Homo sapiens (Human), UniProt O94925); test: GLS1 Enzymatic Activity Assay (dual-coupled enzymatic assay, resorufin/Amplex UltraRed readout); type: biochemical;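 note: glutamate from GAC coupled via glutamate oxidase and peroxidase to resorufin, read as fluorescence (ex 530, em 590 nm) kinetically or at 20 min, four-parameter logistic IC50 fit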
Sequence of purified recombinant human GAC (GLS1) (O94925 other isoform, or with tags, fused parts or gaps): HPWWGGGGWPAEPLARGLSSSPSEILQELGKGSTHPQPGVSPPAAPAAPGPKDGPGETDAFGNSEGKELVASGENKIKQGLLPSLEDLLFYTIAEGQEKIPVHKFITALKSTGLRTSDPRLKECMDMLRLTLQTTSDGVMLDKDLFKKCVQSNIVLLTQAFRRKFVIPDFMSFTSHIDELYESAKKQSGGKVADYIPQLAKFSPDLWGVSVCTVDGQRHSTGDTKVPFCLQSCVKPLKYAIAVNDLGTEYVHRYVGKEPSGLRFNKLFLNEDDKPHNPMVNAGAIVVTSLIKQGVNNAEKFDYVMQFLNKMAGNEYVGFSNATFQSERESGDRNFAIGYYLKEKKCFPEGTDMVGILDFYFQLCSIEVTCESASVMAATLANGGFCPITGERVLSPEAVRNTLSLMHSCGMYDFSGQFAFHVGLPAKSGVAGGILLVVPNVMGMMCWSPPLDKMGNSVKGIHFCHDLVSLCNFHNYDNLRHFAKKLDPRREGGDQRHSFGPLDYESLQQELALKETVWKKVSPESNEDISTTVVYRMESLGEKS

| Compound | EC50 (A549 cells) | IC50 [1] |
| --- | --- | --- |
| CC(=O)Nc1ccc(CCC(F)Cn2cc(C(=O)NCc3cc(C(F)(F)F)ccn3)nn2)nn1 (centres unmarked) [Example 236, 1-(4-(6-acetamidopyridazin-3-yl)-2-fluorobutyl)-N-((4-(trifluoromethyl)pyridin-2-yl)methyl)-1H-1,2,3-triazole-4-carboxamide] | < 100 nM | < 100 nM |
| O=C(NCc1cc(C(F)(F)F)ccn1)c1cn(CCCCn2cc(C(=O)NCC3CCC3)nn2)nn1 [Example 85, 1-(4-{4-[(cyclobutylmethyl)carbamoyl]-1H-1,2,3-triazol-1-yl}butyl)-N-{[4-(trifluoromethyl)pyridin-2-yl]methyl}-1H-1,2,3-triazole-4-carboxamide] | 500 to 5000 nM | 500 to 5000 nM |
| COCCNC(=O)c1nnc(CCCCn2cc(C(=O)NCc3ccccc3)nn2)s1 [Example 52, 5-{4-[4-(benzylcarbamoyl)-1H-1,2,3-triazol-1-yl]butyl}-N-(2-methoxyethyl)-1,3,4-thiadiazole-2-carboxamide] | > 5000 nM | 500 to 5000 nM |
| CNC(=O)c1cn(CC(F)CCc2nnc(NC(=O)Cc3cncc(-c4cccc(OC(F)(F)F)c4)c3)s2)nn1 (centres unmarked) [Example 195, 1-(2-fluoro-4-(5-(2-(5-(3-(trifluoromethoxy)phenyl)pyridin-3-yl)acetamido)-1,3,4-thiadiazol-2-yl)butyl)-N-methyl-1H-1,2,3-triazole-4-carboxamide] | < 100 nM | < 100 nM |
| O=C(Cc1cccc(OC(F)(F)F)c1)Nc1nnc(CCCCn2cc(C(=O)NCCO)nn2)s1 [Example 17, N-(2-hydroxyethyl)-1-[4-(5-{2-[3-(trifluoromethoxy)phenyl]acetamido}-1,3,4-thiadiazol-2-yl)butyl]-1H-1,2,3-triazole-4-carboxamide] | 100 to 500 nM | 100 to 500 nM |
| CNC(=O)c1cn(CCCCc2ccc(NC(=O)Cc3cc(OC(F)(F)F)ccc3F)nn2)nn1 [Example 160, 1-[4-(6-{2-[2-fluoro-5-(trifluoromethoxy)phenyl]acetamido}pyridazin-3-yl)butyl]-N-methyl-1H-1,2,3-triazole-4-carboxamide] | < 100 nM | < 100 nM |
| O=C(Cc1cccc(OC(F)(F)F)c1)Nc1cn(CC(F)CCn2cc(C(=O)NCc3cccc(OC(F)(F)F)c3)nn2)nn1 (centres unmarked) [Example 339, 1-[3-fluoro-4-(4-{2-[3-(trifluoromethoxy)phenyl]acetamido}-1H-1,2,3-triazol-1-yl)butyl]-N-{[3-(trifluoromethoxy)phenyl]methyl}-1H-1,2,3-triazole-4-carboxamide] | < 100 nM | < 100 nM |
| O=C(NCc1cncc(C(F)(F)F)c1)c1cn(CCCCn2cc(C(=O)NCC3COC3)nn2)nn1 [Example 91, N-(oxetan-3-ylmethyl)-1-{4-[4-({[5-(trifluoromethyl)pyridin-3-yl]methyl}carbamoyl)-1H-1,2,3-triazol-1-yl]butyl}-1H-1,2,3-triazole-4-carboxamide] | > 5000 nM | 500 to 5000 nM |
| O=C(NCc1cc(OC(F)(F)F)ccc1F)c1cn(CCC(F)Cn2cc(C(=O)NCc3cccc(C(F)(F)F)n3)nn2)nn1 (centres unmarked) [Example 425, 1-{2-fluoro-4-[4-({[2-fluoro-5-(trifluoromethoxy)phenyl]methyl}carbamoyl)-1H-1,2,3-triazol-1-yl]butyl}-N-{[6-(trifluoromethyl)pyridin-2-yl]methyl}-1H-1,2,3-triazole-4-carboxamide] | < 100 nM | < 100 nM |
| O=C(NCc1ccccc1)c1cn(CCCCn2cc(C(=O)NCc3cc(C(F)(F)F)ccn3)nn2)nn1 [Example 96, 1-{4-[4-(benzylcarbamoyl)-1H-1,2,3-triazol-1-yl]butyl}-N-{[4-(trifluoromethyl)pyridin-2-yl]methyl}-1H-1,2,3-triazole-4-carboxamide] | 100 to 500 nM | 100 to 500 nM |
| O=C(CN1CC(F)(F)C1)Nc1cn(CC(F)CCn2cc(C(=O)NCc3cc(C(F)(F)F)ccn3)nn2)nn1 (centres unmarked) [Example 402, 1-(4-{4-[2-(3,3-difluoroazetidin-1-yl)acetamido]-1H-1,2,3-triazol-1-yl}-3-fluorobutyl)-N-{[4-(trifluoromethyl)pyridin-2-yl]methyl}-1H-1,2,3-triazole-4-carboxamide] | 500 to 5000 nM | 100 to 500 nM |
| CNC(=O)c1cn(CCCCc2ccc(NC(=O)CN3CCN(c4cccc(OC(F)(F)F)c4)CC3=O)nn2)nn1 [Example 227, N-methyl-1-(4-(6-(2-(2-oxo-4-(3-(trifluoromethoxy)phenyl)piperazin-1-yl)acetamido)pyridazin-3-yl)butyl)-1H-1,2,3-triazole-4-carboxamide] | < 100 nM | < 100 nM |

Second part, the compound after the results:

| EC50 (A549 cells) | IC50 [1] | Compound |
| --- | --- | --- |
| < 100 nM | < 100 nM | O=C(NCc1cccc(OC(F)(F)F)c1)c1cn(CC(F)CCc2nnc(C(=O)NCc3ccc(C(F)(F)F)cn3)s2)nn1 (centres unmarked) [Example 464, 5-{3-fluoro-4-[4-({[3-(trifluoromethoxy)phenyl]methyl}carbamoyl)-1H-1,2,3-triazol-1-yl]butyl}-N-{[5-(trifluoromethyl)pyridin-2-yl]methyl}-1,3,4-thiadiazole-2-carboxamide] |
| < 100 nM | < 100 nM | O=C(NCc1cc(OC(F)(F)F)ccc1F)c1cn(CC(F)CCc2nnc(NC(=O)c3ccccn3)s2)nn1 (centres unmarked) [Example 595, N-(5-(3-fluoro-4-(4-((2-fluoro-5-(trifluoromethoxy)benzyl)carbamoyl)-1H-1,2,3-triazol-1-yl)butyl)-1,3,4-thiadiazol-2-yl)picolinamide] |
| 100 to 500 nM | 100 to 500 nM | O=C(NCc1cc(C(F)(F)F)ccn1)c1cn(CC(F)CCn2cc(C(=O)N[C@@H](CO)c3ccccc3)nn2)nn1 (stereo partly drawn) [Example 467, 1-[2-fluoro-4-(4-{[(1R)-2-hydroxy-1-phenylethyl]carbamoyl}-1H-1,2,3-triazol-1-yl)butyl]-N-{[4-(trifluoromethyl)pyridin-2-yl]methyl}-1H-1,2,3-triazole-4-carboxamide] |
| < 100 nM | < 100 nM | CC(=O)Nc1ccc(CCCCc2nnc(C(=O)NCc3cc(C(F)(F)F)ccn3)s2)nn1 [Example 601, 5-(4-(6-acetamidopyridazin-3-yl)butyl)-N-((4-(trifluoromethyl)pyridin-2-yl)methyl)-1,3,4-thiadiazole-2-carboxamide] |
| 100 to 500 nM | < 100 nM | O=C(NCc1cc(C(F)(F)F)ccn1)c1cn(CCC(F)Cn2cc(C(=O)NCc3ccccc3)nn2)nn1 (centres unmarked) [Example 450, N-benzyl-1-{2-fluoro-4-[4-({[4-(trifluoromethyl)pyridin-2-yl]methyl}carbamoyl)-1H-1,2,3-triazol-1-yl]butyl}-1H-1,2,3-triazole-4-carboxamide] |
| < 100 nM | < 100 nM | O=C(Cc1cc(OC(F)(F)F)ccc1F)Nc1ccc(CCCCn2cc(C(=O)NCc3ccccn3)nn2)nn1 [Example 585, 1-(4-(6-(2-(2-fluoro-5-(trifluoromethoxy)phenyl)acetamido)pyridazin-3-yl)butyl)-N-(pyridin-2-ylmethyl)-1H-1,2,3-triazole-4-carboxamide] |
| < 100 nM | < 100 nM | O=C(NCC1CCCCC1)c1cn(CCC(F)Cn2cc(C(=O)NCc3cc(C(F)(F)F)ccn3)nn2)nn1 (centres unmarked) [Example 456, 1-(4-{4-[(cyclohexylmethyl)carbamoyl]-1H-1,2,3-triazol-1-yl}-2-fluorobutyl)-N-{[4-(trifluoromethyl)pyridin-2-yl]methyl}-1H-1,2,3-triazole-4-carboxamide] |
